Molecular target: T1, hFASN enzyme (full length) (Homo sapiens, UniProt P49327)
T1 construct: 10 μL hFASN enzyme (full length, 300 ng, purified in house); made in house
Assay: Fatty Acid Synthase (FASN) inhibition scintillation proximity assay
Format: biochemical
Conditions: for inhibition at 10 µM: read-out: Human FASN % inhibition @ 10 μM, 10 μM test compound; for IC50: read-out: Human FASN pIC50 (converted)
How it was run: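 Proximity read-out: hydrophobic ^3H-palmitate formed from ^3H-acetyl-CoA and malonyl-CoA binds streptavidin imaging beads, imaged at 610±20 nm at least 24 h after stopping. Enzyme was in-house purified full-length hFASN, 300 ng, in pH 7.5 phosphate/DTT buffer; compound series 30 μM down to 0.01 μM, normalized to controls, 4-parameter fit.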

T1 sequence (P49327 whole entry): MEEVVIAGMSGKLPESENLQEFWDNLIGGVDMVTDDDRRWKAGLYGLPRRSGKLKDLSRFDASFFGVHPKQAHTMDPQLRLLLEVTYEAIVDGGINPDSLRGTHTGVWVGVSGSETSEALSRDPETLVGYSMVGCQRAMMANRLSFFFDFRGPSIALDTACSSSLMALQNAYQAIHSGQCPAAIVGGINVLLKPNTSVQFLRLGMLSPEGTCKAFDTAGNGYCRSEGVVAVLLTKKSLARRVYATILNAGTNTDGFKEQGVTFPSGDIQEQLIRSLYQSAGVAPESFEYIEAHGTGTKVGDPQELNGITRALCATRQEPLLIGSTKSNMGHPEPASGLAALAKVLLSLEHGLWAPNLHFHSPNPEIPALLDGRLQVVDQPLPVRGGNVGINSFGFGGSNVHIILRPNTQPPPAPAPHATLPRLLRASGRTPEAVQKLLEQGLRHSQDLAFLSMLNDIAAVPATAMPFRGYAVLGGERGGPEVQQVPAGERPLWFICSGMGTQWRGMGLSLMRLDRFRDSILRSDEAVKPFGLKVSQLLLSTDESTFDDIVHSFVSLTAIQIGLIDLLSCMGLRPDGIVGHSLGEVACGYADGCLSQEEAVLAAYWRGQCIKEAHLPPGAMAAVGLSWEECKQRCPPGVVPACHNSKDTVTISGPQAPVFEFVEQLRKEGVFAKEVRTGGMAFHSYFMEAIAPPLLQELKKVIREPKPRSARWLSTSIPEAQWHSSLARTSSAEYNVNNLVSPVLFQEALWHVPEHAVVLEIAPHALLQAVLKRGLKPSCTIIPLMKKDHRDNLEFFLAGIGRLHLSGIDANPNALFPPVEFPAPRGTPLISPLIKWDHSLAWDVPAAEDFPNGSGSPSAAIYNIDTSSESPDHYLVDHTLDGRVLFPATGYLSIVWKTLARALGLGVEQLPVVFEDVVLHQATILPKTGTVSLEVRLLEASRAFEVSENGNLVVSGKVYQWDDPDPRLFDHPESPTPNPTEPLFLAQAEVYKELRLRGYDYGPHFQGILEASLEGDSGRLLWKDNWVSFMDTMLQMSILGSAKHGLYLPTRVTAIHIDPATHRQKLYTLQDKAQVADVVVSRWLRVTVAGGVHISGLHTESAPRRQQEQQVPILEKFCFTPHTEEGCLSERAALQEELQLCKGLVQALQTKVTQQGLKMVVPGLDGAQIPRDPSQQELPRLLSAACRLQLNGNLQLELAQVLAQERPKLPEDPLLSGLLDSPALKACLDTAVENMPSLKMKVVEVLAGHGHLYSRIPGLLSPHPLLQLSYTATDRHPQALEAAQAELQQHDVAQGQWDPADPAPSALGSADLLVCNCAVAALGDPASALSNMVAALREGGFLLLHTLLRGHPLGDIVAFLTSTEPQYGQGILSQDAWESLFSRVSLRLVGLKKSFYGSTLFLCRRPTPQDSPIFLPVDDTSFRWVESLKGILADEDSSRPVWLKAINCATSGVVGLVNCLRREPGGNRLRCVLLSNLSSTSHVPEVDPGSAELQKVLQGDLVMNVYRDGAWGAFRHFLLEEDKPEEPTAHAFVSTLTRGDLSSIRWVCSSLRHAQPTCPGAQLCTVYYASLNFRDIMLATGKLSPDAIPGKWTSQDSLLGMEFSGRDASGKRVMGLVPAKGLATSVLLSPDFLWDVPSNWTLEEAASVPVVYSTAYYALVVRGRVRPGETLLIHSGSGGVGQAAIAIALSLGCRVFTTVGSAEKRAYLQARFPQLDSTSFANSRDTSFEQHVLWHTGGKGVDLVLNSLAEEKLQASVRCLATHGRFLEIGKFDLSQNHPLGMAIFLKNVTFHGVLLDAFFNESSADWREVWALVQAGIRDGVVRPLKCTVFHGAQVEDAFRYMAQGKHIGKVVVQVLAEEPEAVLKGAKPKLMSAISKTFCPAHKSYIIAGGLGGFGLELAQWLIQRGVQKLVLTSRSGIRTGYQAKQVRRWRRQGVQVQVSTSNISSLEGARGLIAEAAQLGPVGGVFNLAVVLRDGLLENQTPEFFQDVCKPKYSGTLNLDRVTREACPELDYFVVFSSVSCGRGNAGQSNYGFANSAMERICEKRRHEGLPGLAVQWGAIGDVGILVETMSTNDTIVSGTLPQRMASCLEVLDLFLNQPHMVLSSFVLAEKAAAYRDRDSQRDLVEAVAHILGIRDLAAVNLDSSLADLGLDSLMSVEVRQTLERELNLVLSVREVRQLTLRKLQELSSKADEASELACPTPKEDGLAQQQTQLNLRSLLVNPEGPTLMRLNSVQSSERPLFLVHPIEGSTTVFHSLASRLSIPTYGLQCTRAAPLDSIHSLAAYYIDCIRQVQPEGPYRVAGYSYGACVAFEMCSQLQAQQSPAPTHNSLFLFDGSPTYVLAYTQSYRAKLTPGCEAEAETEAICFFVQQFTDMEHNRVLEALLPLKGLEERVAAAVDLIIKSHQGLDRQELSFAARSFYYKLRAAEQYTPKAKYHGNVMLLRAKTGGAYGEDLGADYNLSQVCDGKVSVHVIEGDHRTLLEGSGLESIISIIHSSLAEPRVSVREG

Compound | inhibition at 10 µM [%] | IC50 [µM]
CC(O)C(=O)N1CC[C@@H](CN2C(=O)C3(CCOC3)N=C2c2ccc(-c3ccc4occc4c3)cc2)C1 (stereo partly drawn) [compound 687, 2-[4-(1-Benzofuran-5-yl)phenyl]-3-{[(3R)-1-(2-hydroxypropanoyl)pyrrolidin-3-yl]methyl}-7-oxa-1,3-diazaspiro[4.4]non-1-en-4-one] | 73 | 2.88
O=C(N1CCCC1)N1CC[C@@H](CN2C(=O)C3(CCOC3)N=C2c2ccc(-c3ccc4occc4c3)cc2)C1 (stereo partly drawn) [compound 689, 2-[4-(1-Benzofuran-5-yl)phenyl]-3-{[(3S)-1-(pyrrolidin-1-ylcarbonyl)pyrrolidin-3-yl]methyl}-7-oxa-1,3-diazaspiro[4.4]non-1-en-4-one] | 61 | 4.07
CC(O)C(=O)N1CC[C@@H](CN2C(=O)C3(CCOC3)N=C2c2ccc(-c3ccc4c(cnn4C)c3)cc2)C1 (stereo partly drawn) [compound 691, 3-{[(3R)-1-(2-Hydroxypropanoyl)pyrrolidin-3-yl]methyl}-2-[4-(1-methyl-1H-indazol-5-yl)phenyl]-7-oxa-1,3-diazaspiro[4.4]non-1-en-4-one] | 63 | ~7.41
Cn1ncc2cc(-c3ccc(C4=NC5(CCOC5)C(=O)N4C[C@@H]4CCN(C(=O)N5CCCC5)C4)cc3)ccc21 (stereo partly drawn) [compound 693, 2-[4-(1-Methyl-1H-indazol-5-yl)phenyl]-3-{[(3S)-1-(pyrrolidin-1-ylcarbonyl)pyrrolidin-3-yl]methyl}-7-oxa-1,3-diazaspiro[4.4]non-1-en-4-one] | 48 | 9.77
Cn1cc(-c2ccc(-c3ccc(C4=NC5(CCOCC5)C(=O)N4CC4CN(C(=O)C5CC5)C4)cc3)cc2)cn1 [compound 694, 3-{[1-(Cyclopropylcarbonyl)azetidin-3-yl]methyl}-2-[4-(1-methyl-1H-pyrazol-4-yl)biphenyl-4-yl]-8-oxa-1,3-diazaspiro[4.5]dec-1-en-4-one] | 69 | 2.45
CC(O)C(=O)N1CC(CN2C(=O)C3(CCOCC3)N=C2c2ccc(-c3ccc(-c4cnn(C)c4)cc3)cc2)C1 (centres unmarked) [compound 695, 3-{[1-(2-Hydroxypropanoyl)azetidin-3-yl]methyl}-2-[4′-(1-methyl-1H-pyrazol-4-yl)biphenyl-4-yl]-8-oxa-1,3-diazaspiro[4.5]dec-1-en-4-one] | 43 | 5.89
Cn1cc(-c2ccc(-c3ccc(C4=NC5(CCOCC5)C(=O)N4CC4CN(C(=O)[C@H]5CCCO5)C4)cc3)cc2)cn1 [compound 696, 2-[4′-(1-Mehtyl-1H-pyrazol-4-yl)biphenyl-4-yl]-3-({1-[(2R)-tetrahydro-furan-2-ylcarbonyl]azetidin-3-yl}methyl)-8-oxa-1,3-diazaspiro[4.5]dec-1-en-4-one] | 72 | 1.7
Cn1cc(-c2ccc(-c3ccc(C4=NC5(CCOCC5)C(=O)N4CC4CN(C(=O)N5CCCC5)C4)cc3)cc2)cn1 [compound 697, 2-[4′-(1-Methyl-1H-pyrazol-4-yl)biphenyl-4-yl]-3-{[1-(pyrrolidin-1-ylcarbonyl)azetidin-3-yl]methyl}-8-oxa-1,3-diazaspiro[4.5]dec-1-en-4-one] | 58 | 5.89
O=C(C1CC1)N1CC(CN2C(=O)C3(CCOCC3)N=C2c2ccc(-c3ccc4occc4c3)cc2)C1 [compound 702, 2-[4-(1-Benzofuran-5-yl)phenyl]-3-{[1-(cyclopropylcarbonyl)azetidin-3-yl]methyl}-8-oxa-1,3-diazaspiro[4.5]dec-1-en-4-one] | 75 | ~2.63
CC(O)C(=O)N1CC(CN2C(=O)C3(CCOCC3)N=C2c2ccc(-c3ccc4occc4c3)cc2)C1 (centres unmarked) [compound 703, 2-[4-(1-Benzofuran-5-yl)phenyl]-3-{[1-(2-hydroxypropanoyl)azetidin-3-yl]methyl}-8-oxa-1,3-diazaspiro[4.5]dec-1-en-4-one] | 61 | 4.47
